These results are taken from publication PMC11022729 (Advanced Science, 2024).

Data set [1] has as its target T1, human Slack (Homo sapiens, UniProt Q5JUK3).
T1 construct: host or cells: HEK293
T1 sequence (Q5JUK3 1-1230): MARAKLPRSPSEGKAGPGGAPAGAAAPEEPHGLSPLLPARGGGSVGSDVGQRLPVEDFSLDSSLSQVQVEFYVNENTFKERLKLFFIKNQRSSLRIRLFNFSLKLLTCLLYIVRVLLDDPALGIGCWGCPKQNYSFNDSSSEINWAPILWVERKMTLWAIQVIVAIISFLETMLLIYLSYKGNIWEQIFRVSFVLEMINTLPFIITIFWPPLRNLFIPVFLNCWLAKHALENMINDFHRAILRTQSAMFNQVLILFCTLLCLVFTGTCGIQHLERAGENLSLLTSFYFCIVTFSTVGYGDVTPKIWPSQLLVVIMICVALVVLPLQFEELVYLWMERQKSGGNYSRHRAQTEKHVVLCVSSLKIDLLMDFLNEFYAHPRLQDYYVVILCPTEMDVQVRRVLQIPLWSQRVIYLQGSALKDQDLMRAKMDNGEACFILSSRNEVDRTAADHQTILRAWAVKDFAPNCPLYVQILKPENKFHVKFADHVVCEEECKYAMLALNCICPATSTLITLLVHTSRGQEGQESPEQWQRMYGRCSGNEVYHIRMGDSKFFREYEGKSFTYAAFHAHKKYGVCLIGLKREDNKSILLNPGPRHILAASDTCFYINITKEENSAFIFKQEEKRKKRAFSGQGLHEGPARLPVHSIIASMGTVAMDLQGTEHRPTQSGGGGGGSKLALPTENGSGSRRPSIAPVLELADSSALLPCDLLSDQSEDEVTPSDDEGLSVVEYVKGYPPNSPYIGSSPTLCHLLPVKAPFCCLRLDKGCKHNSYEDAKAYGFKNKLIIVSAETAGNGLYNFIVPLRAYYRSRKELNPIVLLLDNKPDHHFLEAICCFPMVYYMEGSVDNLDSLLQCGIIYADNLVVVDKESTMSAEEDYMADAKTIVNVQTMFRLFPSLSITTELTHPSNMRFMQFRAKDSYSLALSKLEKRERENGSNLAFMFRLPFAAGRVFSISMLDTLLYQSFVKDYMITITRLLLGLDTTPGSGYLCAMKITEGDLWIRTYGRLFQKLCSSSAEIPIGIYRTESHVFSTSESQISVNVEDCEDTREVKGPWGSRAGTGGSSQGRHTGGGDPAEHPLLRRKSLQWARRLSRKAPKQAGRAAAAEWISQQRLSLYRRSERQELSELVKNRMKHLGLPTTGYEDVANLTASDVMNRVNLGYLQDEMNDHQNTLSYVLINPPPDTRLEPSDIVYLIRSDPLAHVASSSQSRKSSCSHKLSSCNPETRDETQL
The data set can be described thus: FluxOR potassium ion channel assay in HEK-Slack cells. The data set is classed as cell-based. Here is the method: The functional activity of this series of compounds against human Slack was determined using a cell‐based FluxOR potassium ion channel assay in cultured HEK293 cells stably expressing human Slack (herein referred to as HEK‐Slack cells) and a Na^+‐free assay buffer to prevent compound‐independent Slack activation by monovalent cations.^[ [14], [24] ^] […] Of the 114 newly synthesized compounds, 31 acted as Slack activators to varying extents. Accordingly, we deemed eight of these as the most interesting candidates.
To determine the Slack‐activating efficacy and potency of the novel compounds, a commercial FluxOR potassium ion channel assay (#10 017; Invitrogen) was used. HEK‐Slack cells were plated at a density of 50 000 cells per well on a poly‐D‐lysine coated (75 µg mL^−1, Sigma–Aldrich) 96‐well, black‐walled microplate with clear bottom (#655 090; Greiner Bio‐One) in DMEM (100 µL per well) containing 10% FBS and 1% penicillin/streptomycin 24 h prior to assaying. In the initial experiments shown in Figure S3A–F (Supporting Information), HEK‐Slack cells were plated at a density of 100 000 cells/well 48 h prior to the assay. On the day of the experiment, the cells were loaded with FluxOR dye according to the manufacturer's protocol. A Na^+‐free assay buffer, adjusted to pH 7.4 with KOH, containing 140 mM choline chloride, 5 mM KCl, 2 mM CaCl2, 2 mM MgSO4, 10 mM HEPES, and 5.55 mM glucose was used. To reduce background fluorescence, all assay components were complemented with a 10% BackDrop Background Suppressor (#B10511; Invitrogen).
All compounds were prepared as a 333 mM stock in DMSO and diluted on the experimental day to a final concentration of 100, 50, 25, 12.5, 6.25, 3.125, or 1.5625 µM in an assay buffer with DMSO adjusted to 0.03%. Before treatment, the cells were washed, and the medium was exchanged for the assay buffer. In a total volume of 90 µL per well, the cells were then incubated for 30 min at 37 °C with compounds at the indicated concentrations, or 0.03% DMSO alone as the vehicle. […] Fluorescence was measured using an Infinite M200 microplate reader (Tecan) with excitation at 485 nm (9 nm bandwidth) and emission at 525 nm (20 nm bandwidth) in the bottom read mode. First, the baseline fluorescence of the individual wells was established. Thereafter cells were stimulated with 20 µL Tl2SO4 (5 mM) solution injected at 100 µL s^−1, and fluorescence was further recorded for 100 s. Assays were run in triplicate. For all time points, the ratio of fluorescence to baseline fluorescence was calculated first for individual wells, and the average was then used.
Dose‐response curves comprising six concentrations were obtained in triplets using fluorescence/fluorescenceBaseline ratios at the 100th s.

Data set [2] has as its target T2, adrenergic α1A receptor (Homo sapiens, UniProt P35348).
T2 construct: purchased Eurofins Cerep P270
Kind of data set: SafetyScreen44 panel. The class given is binding. Here is the method: (§1) Measurements were performed in duplicate.
(§2) channel, which were obtainedfrom ratspecimens).
(§3) in brackets) specific for each target.

Data set [3] concerns the target T3, serotonin 5-HT2A receptor (Homo sapiens, UniProt P28223).
T3 construct: purchased Eurofins Cerep P270
Kind of data set: SafetyScreen44 panel. The class given is binding. The method, then: as §1, §2, §3

The subject of data set [4] is voltage-gated (KV) potassium channel. Kind of data set: SafetyScreen44 panel. The data set is classed as binding, rat. As to conditions: 10 µM. Here is the method:
as §1, §2, §3

Data set [5] has as its system mice. Kind of data set: Vertical pole test. The data set is classed as in vivo, mouse. As to conditions: 15 min after dosing. The method, then:
As a prerequisite for interpreting itch behavior experiments, we first tested motor function after systemic dosing.
Mice were placed on a rotarod treadmill (Ugo Basile, Italy) at increasing speed (4–40 rpm over 300 s) and trained for 4–5 consecutive days. Only mice that reached 300 s without falling off during the training sessions were included in the experiment. In the vertical pole test, the mice were placed head‐upward on top of a vertical pole with a rough surface (diameter, 1 cm; height, 40 cm), and the time until the animals reached the ground was recorded (cut‐off time 20 s). Only mice that reached the ground within 10 s in the baseline measurements were included in the experiment. […] The means of three trials at each time point were calculated for further analyses.

[6] abbreviates: HEK-Slack cells, Na+-free assay buffer, mean (95% confidence interval).

Where “and” joins values, the source holds several entries; their conditions need not be identical. Identical values can stand only once.

T2 sequence (P35348 whole entry): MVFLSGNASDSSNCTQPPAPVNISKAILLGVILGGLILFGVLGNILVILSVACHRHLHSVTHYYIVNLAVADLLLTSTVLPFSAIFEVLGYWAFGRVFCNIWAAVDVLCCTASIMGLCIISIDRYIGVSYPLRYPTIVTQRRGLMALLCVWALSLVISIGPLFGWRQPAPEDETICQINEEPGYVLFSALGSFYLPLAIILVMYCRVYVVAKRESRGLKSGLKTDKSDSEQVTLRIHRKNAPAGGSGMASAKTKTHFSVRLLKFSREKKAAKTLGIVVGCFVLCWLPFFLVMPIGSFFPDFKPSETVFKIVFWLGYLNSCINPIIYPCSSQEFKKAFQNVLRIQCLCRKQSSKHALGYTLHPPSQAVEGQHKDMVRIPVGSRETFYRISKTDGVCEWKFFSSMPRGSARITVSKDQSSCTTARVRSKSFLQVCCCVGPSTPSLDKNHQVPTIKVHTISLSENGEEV
T3 sequence (P28223 whole entry): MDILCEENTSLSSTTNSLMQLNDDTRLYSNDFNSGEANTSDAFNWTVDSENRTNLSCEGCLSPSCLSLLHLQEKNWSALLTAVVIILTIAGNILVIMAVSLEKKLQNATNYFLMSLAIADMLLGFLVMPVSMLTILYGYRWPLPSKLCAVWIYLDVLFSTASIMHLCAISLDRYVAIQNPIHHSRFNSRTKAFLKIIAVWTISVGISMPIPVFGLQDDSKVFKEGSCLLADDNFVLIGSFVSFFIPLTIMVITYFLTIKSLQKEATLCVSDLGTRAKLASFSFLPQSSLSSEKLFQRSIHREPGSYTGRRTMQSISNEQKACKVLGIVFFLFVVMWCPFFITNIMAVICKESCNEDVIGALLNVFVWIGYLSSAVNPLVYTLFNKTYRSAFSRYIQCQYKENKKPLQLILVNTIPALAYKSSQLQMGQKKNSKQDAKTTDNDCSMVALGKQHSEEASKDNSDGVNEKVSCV

For orientation: Emax means the greatest response seen or fitted, relative to the assay's reference. For orientation: EC50 means the concentration at which the effect is half-maximal. Higher therefore signals lower potency in that assay. On to `O=C(O)COCCN1CCN(C2=Nc3ccccc3Oc3ccc(Cl)cc32)CC1` [Compound 6], for which the Emax in data set [1] came out at 96.2%. Besides, in data set [1] (setting [6]), the EC50 is 30 µM and 30.3 µM. Also, the binding inhibition result in data set [2] (10 µM) and in data set [3] (10 µM) was “substantial binding” in each case. Further, the binding result in data set [4] is on record as “did not measurably bind”. Further, the “motor function, vertical pole test” value in data set [5] (3–30 mg i.p.) is recorded as “did not impair motor function”.

The inhibition is the change of the read-out against control, counted positive when it falls. In data set [1], `CN1CCN(C2=Nc3ccccc3Oc3ccc(Cl)cc32)CC1` [Loxapine, reference compound] came in with an Emax of 100%. Besides, the EC50 in data set [1] (setting [6]) is 20.7 µM; in data set [1] (first preliminary experiments, Na+-free buffer with 2 mM Ca2+, 2 mM Mg2+ and 0.03% DMSO), 23.4 µM. Also, the inhibition at 10 µM in data set [2] (read-out: binding inhibition) and in data set [3] (read-out: binding inhibition) was above 50% throughout. Also, in data set [4], the binding entry was “did not measurably bind”. Further, in data set [5] (dose of ≥ 0.39 mg kg−1 i.p.), the “motor function, vertical pole test” value is “markedly reduced the ability of the mice to perform”.
